From ChEMBL document CHEMBL4190205 (2017)

What follows are molecules tested on Human immunodeficiency virus (assay: Antiviral activity against HIV infected in human 1A2 cells assessed as protection against virus-induced cytopathic effect by measuring cell viability at 5 ug/ml after 96 hrs by MTT assay relative to control).
Assay type: functional
In the case of O=C(NCCc1ccccc1)NCCc1ccccc1C(=O)NCCc1ccccc1C(=O)NCCc1ccccc1C(=O)NCCc1ccccc1, the Activity is reported as 17 - 48%. COC(=O)NCCc1ccccc1C(=O)NCCc1ccccc1 was tested, and the Activity was 17 - 48%. With O=C(NCCc1ccccc1C(=O)NCCc1ccccc1)NCCc1ccccc1C(=O)NCCc1ccccc1 the Activity was 17 - 48%. COC(=O)NCCc1ccccc1C(=O)NCCc1ccccc1C(=O)NCCc1ccccc1C(=O)NCCc1ccccc1 was tested, and the Activity was 17 - 48%. With O=C(NCCc1ccccc1C(=O)NCCc1ccccc1)NCCc1ccccc1C(=O)NCCc1ccccc1C(=O)NCCc1ccccc1 the Activity was 17 - 48%. With O=C(NCCc1ccccc1)NCCc1ccccc1C(=O)NCCc1ccccc1C(=O)NCCc1ccccc1 the Activity was 17 - 48%. With COC(=O)NCCc1ccccc1C(=O)NCCc1ccccc1C(=O)NCCc1ccccc1 the Activity was 17 - 48%. With COC(=O)NCCc1ccccc1C(=O)NCCc1ccccc1C(=O)NCCc1ccccc1C(=O)NCCc1ccccc1C(=O)NCCc1ccccc1 the Activity was 17 - 48%.
